{
  "source": "paper doi:10.1101/2025.01.24.634724",
  "about": "“Receptor Activity-Modifying Protein 3 enhances GLP-1-mediated Insulin Secretion” (bioRxiv, 2025)",
  "key": {"CLR-RAMP1": {"system": "CLR-RAMP1", "details": "cited from earlier work", "source_text": "As RAMP3 expression varies between tissues, it is possible that by directly targeting this complex, tissue specific receptor activation could be facilitated. […] Agonists which have reduced affinity for the RAMP3 complex over receptor alone ..."}, "INS-1 832/3 cells": {"system": "INS-1 832/3 cells", "test": "Insulin secretion (GSIS), INS-1 832/3", "type": "cell-based, rat", "details": "for effect of inhibitor on GLP-1-mediated insulin secretion: 10nM GLP-1, vector or RAMP3, 30 min inhibitor pre-treatment (YM-254890 100nM, PTX 0.2ng/μL), n>4", "method": "(§1) Insulin content was measured with the insulin ultra-sensitive detection kit (Cisbio)."}, "[1]": {"system": "LgBiT-GLP-1R with SmBiT-RAMP1 or -RAMP2", "test": "NanoBiT/BRET fluorescent ligand binding with SmBiT-RAMP1 or -RAMP2", "details": "SmBiT-RAMP1 or -RAMP2, HEK293T"}, "[2]": {"system": "wildtype SvEv129/SJ and isogenic Ramp3−/− male mice", "test": "Insulin tolerance test (ITT), blood glucose, WT and Ramp3−/− mice", "type": "in vivo, mouse", "details": "GLP-1 50nmol/kg subQ 15 min before insulin 1IU/kg i.p., n=5", "source_text": "(§2) Ramp3^−/− mice and genotyping have been previously described ([34])."}, "[3]": {"system": "Ramp1/Ramp3 knockout mice", "details": "mouse models; dual Ramp1/Ramp3 deletion ref 43 (Leuthardt et al.); cited from earlier work", "source_text": "It is possible this difference is due to lower receptor expression, or a differential effect on bias for the rodent receptors than the human. Species differences in signalling bias have been observed for other GPCRs associated with islet cell pharmacology ([41]), so it stands to reason this might be influencing the differences o ..."}, "Min6 B1 cells": {"system": "Min6 B1 cells", "test": "Insulin secretion, siRNA treated Min6 B1", "type": "cell-based, mouse", "details": "10nM or 1nM peptide with 10mM glucose; Min6 B1, n=4", "method": "as §1"}, "GCGR with RAMP2": {"system": "GCGR with RAMP2", "details": "RAMP2 co-expression ref 13; cited from earlier work", "source_text": "Signalling bias can also be influenced by the tissue, due to differential expression of signalling proteins, as well as allosteric modulators. A common protein allosteric modulator of Class B1 GPCRs are the receptor activity-modifying proteins (RAMPs). First discovered for the calcitonin-like receptor, with which they form obligate heterodimers, RAMPs influence the expression, affinity, and signalling bias of the receptor. For the calcitonin family, this leads to receptors considered functionally distinct ([10], [11]), although smaller effects are observed on other receptors e.g. the vasoactiv ..."}, "[4]": {"system": "wildtype SvEv129/SJ and isogenic Ramp3−/− male mice", "test": "IPGTT plasma insulin, WT and Ramp3−/− mice", "type": "in vivo, mouse", "details": "GLP-1 50nmol/kg subQ, 15 min after glucose 2g/kg i.p., n=5", "source_text": "as §2"}, "Nluc-GLP-1R [5]": {"system": "Nluc-GLP-1R", "test": "(Ca2+)i mobilisation, HEK293T", "type": "cell-based"}, "Nluc-GLP-1R [6]": {"system": "Nluc-GLP-1R", "test": "cAMP accumulation, HEK293T", "type": "cell-based"}, "GLP-1R-Nluc [7]": {"system": "GLP-1R-Nluc", "test": "Receptor internalisation (loss of BRET with RIT-Venus), HEK293T", "type": "cell-based", "details": "for effect of RAMP3 on internalisation: RAMP3 overexpression"}, "GLP-1R / Gαq(R183Q)": {"system": "GLP-1R / Gαq(R183Q)", "test": "TRUPATH G protein dissociation, Gαq(R183Q)", "details": "HEK293T, R183Q mutant"}, "GLP-1R / Gαs": {"system": "GLP-1R / Gαs", "test": "TRUPATH G protein dissociation, Gαs", "type": "cell-based", "details": "HEK293T"}, "GLP-1R-Nluc [8]": {"system": "GLP-1R-Nluc", "test": "β-arrestin recruitment, HEK293T", "type": "cell-based", "details": "stated in discussion"}, "[9]": {"details": "relative to GLP-1 at GLP-1R alone"}},
  "note": "Several values for one entry are separate records, joined by “and”; a condition that tells them apart may be missing. Identical values can stand only once. Entries after “also recorded” stand apart in the source; their conditions may differ. Numbered stars: 1 amine (or outer) side, 2 acyl side, 3 side chain; on linkers, the order of the positions; unused ones are H or OH. Bridge positions count the residues as written; N and C are the ends. Square brackets hold non-standard residues; d marks the D form. Peptide text beside a SMILES is read from it. X1 = CC(=O)NC(C(=O)OC(C(C)C)C(N[*:1])C(=O)[*:2])C(O)C(C)C; PhLac = O=C(O)[CH](O)Cc1ccccc1; NMeT = CN[CH](C(=O)O)[CH](C)O; NMeA = CN[CH](C)C(=O)O; NMeDha = C=C(NC)C(=O)O",
  "data": [
    {"compound": "NCCCC[C@H](NC(=O)[C@@H](Cc1cc(Br)c(O)c(Br)c1)NC(=O)N1CCC(N2Cc3ccccc3NC2=O)CC1)C(=O)N1CCN(c2ccncc2)CC1", "note": "[BIBN 4096 BS]", "values": [
      {"measurement": "activity at CLR-RAMP1", "setting": "CLR-RAMP1", "value": "CLR-RAMP1 antagonist"}
    ]},
    {"compound": "CC(C)(C)c1cc(C(=O)/C(C#N)=N/Nc2cccc(Cl)c2)no1", "note": "[ESI-09]", "values": [
      {"measurement": "effect of inhibitor on GLP-1-mediated insulin secretion", "setting": "INS-1 832/3 cells", "value": "significantly decreased GLP-1 mediated potentiation of GSIS in both vector and RAMP3 transfected cells"},
      {"measurement": "effect on insulin secretion with […] glucose alone", "setting": "INS-1 832/3 cells; 10μM ESI-09, no GLP-1, n=6", "value": "a reduction was also observed on the response to 16.7mM glucose alone; also recorded: a non-significant reduction was also observed in cells stimulated with high glucose alone"}
    ]},
    {"compound": "Nc1ncnc2c1nc(Br)n2C1OC2COP(O)(=S)OC2C1O", "note": "(stereo not shown) [Rp-8-Br-cAMPs]", "values": [
      {"measurement": "effect of inhibitor on GLP-1-mediated insulin secretion", "setting": "INS-1 832/3 cells", "value": "no effect on insulin secretion, irrespective of the expression of RAMP3"}
    ]},
    {"compound": "C=C1C(=O)NC(C)C(=O)N(C)C(C)C(=O)NC(C(OC(=O)C(NC(C)=O)C(O)C(C)C)C(C)C)C(=O)N(C)C(C(C)OC)C(=O)OC(C)C(NC(C)=O)C(=O)OC(Cc2ccccc2)C(=O)N1C", "note": "(stereo not shown) [YM-254890] (Ac-T[PhLac][NMeDha]A[NMeA][X1][NMeT](Me); ester 1-C; configuration not given here)", "values": [
      {"measurement": "effect of inhibitor on GLP-1-mediated insulin secretion", "setting": "INS-1 832/3 cells", "value": "the effect of YM-254890 was greater than PTX"}
    ]},
    {"compound": "Ex-4-Red: Tag-Lite GLP-1 receptor red ligand, based on exendin-4 (Cisbio)", "values": [
      {"measurement": "binding of Ex-4-Red", "setting": "[1]", "value": "not observed for SmBiT-RAMP1 or -RAMP2"}
    ]},
    {"compound": "GLP-1 (7–36amide)", "values": [
      {"measurement": "blood glucose, ITT", "setting": "[2]; Ramp3−/− mice", "value": "lost in Ramp3^−/− mice (Figure 7H)"},
      {"measurement": "blood glucose, ITT", "setting": "[2]; WT mice", "value": "potentiated the effects of insulin on blood glucose"},
      {"measurement": "effect of Ramp knockout on bodyweight lowering", "setting": "[3]", "value": "increase the effect of GLP-1 on bodyweight lowering in mouse models"},
      {"measurement": "effect of RAMP3 knockdown on insulin secretion", "setting": "Min6 B1 cells", "value": "attenuated, although the effect was small"},
      {"measurement": "effect of RAMP2 on Gαs coupling at GCGR", "setting": "GCGR with RAMP2", "value": "decreasing the response"},
      {"measurement": "insulin secretion", "setting": "INS-1 832/3 cells", "value": "2.36±0.30 fold over 2.8mM glucose and 3.94±0.33 fold over 2.8mM glucose"},
      {"measurement": "plasma insulin, IPGTT", "setting": "[4]; Ramp3−/− mice", "value": "This response was lost in Ramp3^−/− mice; also recorded: no longer able to elevate insulin secretion above vehicle-treated animals"},
      {"measurement": "plasma insulin, IPGTT", "setting": "[4]; WT mice", "value": "increased insulin secretion 15 minutes after administration of glucose"}
    ]},
    {"compound": "GLP-1 (9–36amide) [GLP-1 9–36]", "values": [
      {"measurement": "(Ca2+)i mobilisation", "setting": "Nluc-GLP-1R [5]; in the absence of RAMP3", "value": "unable to elicit any (Ca^2+)i mobilisation in the absence of RAMP3"},
      {"measurement": "cAMP production", "setting": "Nluc-GLP-1R [6]; 8-minute stimulation, concentration range tested", "value": "did not elicit sufficient cAMP production over the concentration range tested"}
    ]},
    {"compound": "exendin-4: incretin mimetic, approved for T2DM in 2005", "values": [
      {"measurement": "effect of RAMP3 on internalisation", "setting": "GLP-1R-Nluc [7]", "value": "no subsequent effect on internalisation"},
      {"measurement": "effect of RAMP3 on Gαq(Q) dissociation", "setting": "GLP-1R / Gαq(R183Q)", "value": "no effect"},
      {"measurement": "effect of RAMP3 overexpression on cAMP potency and efficacy", "setting": "Nluc-GLP-1R [6]; 8-minute stimulation", "value": "reductions in both potency and efficacy observed when RAMP3 was overexpressed"},
      {"measurement": "effect of RAMP3 on Gαs dissociation", "setting": "GLP-1R / Gαs", "value": "no effect"}
    ]},
    {"compound": "glucagon: agonist of the glucagon receptor (GCGR)", "values": [
      {"measurement": "effect of RAMP2 on Gαs coupling at GCGR", "setting": "GCGR with RAMP2", "value": "increasing Gαs coupling at GCGR"}
    ]},
    {"compound": "glucose-dependent insulinotropic polypeptide [GIP]", "values": [
      {"measurement": "effect of RAMP3 knockdown on insulin secretion", "setting": "Min6 B1 cells", "value": "unaffected by RAMP3 knockdown"},
      {"measurement": "effect of RAMP1 and RAMP3 on insulin secretion", "setting": "INS-1 832/3 cells", "value": "both RAMP1 and 3 increased insulin secretion"}
    ]},
    {"compound": "liraglutide: a synthetic, lipidated GLP-1 mimetic, approved in the treatment of T2DM", "values": [
      {"measurement": "effect of RAMP3 on internalisation", "setting": "GLP-1R-Nluc [7]", "value": "significant decrease in the potency of internalisation; also recorded: the response to liraglutide was reduced"},
      {"measurement": "effect of RAMP3 on LogRA, desensitisation / internalisation", "setting": "GLP-1R-Nluc [7]; [9]", "value": "greater reduction in internalisation"},
      {"measurement": "effect of RAMP3 on (Ca2+)i mobilisation", "setting": "Nluc-GLP-1R [5]", "value": "no significant effects"},
      {"measurement": "effect of RAMP3 on Gαq(Q) dissociation", "setting": "GLP-1R / Gαq(R183Q)", "value": "no effect"},
      {"measurement": "effect of RAMP2 on Gαs coupling at GCGR", "setting": "GCGR with RAMP2", "value": "decreasing the response"},
      {"measurement": "effect of RAMP3 overexpression on cAMP potency and efficacy", "setting": "Nluc-GLP-1R [6]; 8-minute stimulation", "value": "reductions in both potency and efficacy observed when RAMP3 was overexpressed"},
      {"measurement": "effect of RAMP3 on LogRA, cAMP accumulation / second messenger", "setting": "Nluc-GLP-1R [6]; [9]", "value": "lesser effects on second messenger signalling"},
      {"measurement": "inherent signalling bias", "setting": "GLP-1R-Nluc [8]", "value": "bias towards β-arrestin recruitment"},
      {"measurement": "effect of RAMP3 on Gαs dissociation", "setting": "GLP-1R / Gαs", "value": "no effect"}
    ]},
    {"compound": "oxyntomodulin: an endogenous dual agonist of both GCGR and GLP-1R", "values": [
      {"measurement": "effect of RAMP3 on internalisation", "setting": "GLP-1R-Nluc [7]", "value": "no subsequent effect on internalisation"},
      {"measurement": "effect of RAMP3 on Gαq(Q) dissociation", "setting": "GLP-1R / Gαq(R183Q)", "value": "no effect"},
      {"measurement": "effect of RAMP2 on Gαs coupling at GCGR", "setting": "GCGR with RAMP2", "value": "increasing Gαs coupling at GCGR"},
      {"measurement": "effect of RAMP3 overexpression on cAMP potency and efficacy", "setting": "Nluc-GLP-1R [6]; 8-minute stimulation", "value": "reductions in both potency and efficacy observed when RAMP3 was overexpressed"}
    ]},
    {"compound": "pertussis toxin [PTX]", "values": [
      {"measurement": "effect of inhibitor on GLP-1-mediated insulin secretion", "setting": "INS-1 832/3 cells", "value": "decreased insulin secretion significantly only when RAMP3 was overexpressed"}
    ]}
  ]
}
